These results are taken from patent US20250092058A1 (priority 2018, published 2025).

Where two headings read alike, the source gives them in different places.

The test system of data set [1] is PDX14244 and PDX27454. Description: Pancreatic PDX14244 (left flank) and colorectal PDX27454 (right flank) in the same SCID mice. Type of data set: in vivo. How it is done:
Human xenograft tumors used.
The vehicle is the same aqueous suspension without FL7N-1. Experimental SCID mice were subcutaneously implanted with 30-40 mg individual PDX tumors (isolated from maintenance mice) at the flank area (left side for PDX14244, and right side for PDX27454) of SCID mice. […] The animal model of PDX tumors was orally treated weekly for 3 times as shown with black arrows. […] Thus, FL7N-1 may be a priority candidate to be developed for treatment of children rare disease retinoblastoma.
The vehicle is the same think aqueous suspension without drug. Experimental SCID mice were subcutaneously implanted with 30-40 mg individual PDX tumors (isolated from maintenance mice) at the flank area (left side for PDX14244, and right side for PDX27454) of SCID mice. […] The animal model of PDX tumors was orally treated weekly for 3 times as shown with black arrows.
The vehicle is the same think aqueous suspension without drug. Experimental SCID mice were subcutaneously implanted with 30-40 mg individual PDX tumors (isolated from maintenance mice) at the flank area (left side for PDX14244, and right side for PDX27454) of SCID mice. […] The animal model of PDX tumors was orally treated weekly for 4 times (one cycle/course, as shown with black arrows).
The vehicle is the same think aqueous suspension without drug. Experimental SCID mice were subcutaneously implanted with 30-40 mg individual PDX tumors (isolated from maintenance mice) at the flank area (left side for PDX14244, and right side for PDX27454) of SCID mice. […] The animal model of PDX tumors was orally treated weekly for 3 times in two doses due to drug limitation then (as shown with black arrows).

Data set [2] deals with RT4. Description: MTT assay RT4. Type of data set: cell-based. The settings on record: Table 5 lower part; RT4 bladder cancer. How it is done:
(§1) MTT assays. […] Viable cells (2500 cells per well) were plated in each well in 96-well plates. After an overnight incubation, cells were treated with and without relevant drugs alone and in combination, respectively, at various concentrations and incubated for 72 hours. MTT, a colorimetric substrate, was added to a final concentration of 0.4 mg/ml to each well. Cells in 96-well plates were further incubated in a 5% CO2 incubator at 37° C. for 4 hours, and then the medium was aspirated. The MTT metabolic product formazan was solubilized by adding 200 ul of DMSO to each well. Absorbance in the relevant wells was measured at 570 nm using an Ultra Microplate Reader (Bio-Tek Instruments). Each experiment was performed at least in triplicate. IC50/EC50 values were calculated from a series of drug dose ranges for each analyzed compound, using GraphPad Prism 6 (GraphPad Software, Inc., La Jolla, CA).
(§2) The inhibition of cell growth and viability in various cancer cell types were tested using MTT assay for references.

The subject of data set [3] is T24. Description: MTT assay T24. Type of data set: cell-based. The conditions noted are these: Table 5 lower part; T24 bladder cancer. Here is the method: as §1, §2
Background: Formazan colour is commonly taken as a measure of viable cells.

Data set [4] relates to H1376. Here is the method: as §1, §2
Data set [5] deals with UOK151. Here is the method:
as §1, §2

Data set [6] concerns UOK262. How it is done:
as §1, §2

Data set [7] has as its system UMUC-3. How it is done:
as §1, §2

Data set [8] relates to HT-3 retinoblastoma xenograft tumors. The conditions noted are these: for antitumor activity and toxicity profile / overall antitumor activity versus toxicity ranking: oral; for antitumor activity and toxicity profile: one time, 3-4 doses; for overall antitumor activity versus toxicity ranking: multiple doses, weekly×4. Here is the method:
Human HT-3 retinoblastoma xenograft tumors were initially established by subcutaneously injection of 2-5×10^6 HT-3 cells in a volume of 100-200 μL medium. Mouse models of HT-3 xenografts were set up by subcutaneously inoculating 30-40 mg tumor tissue on the flank of SCID mice. Treatment with individual compounds was initiated 7-14 days after the transplanted tumors reached 100-200 mm^3 (designated day 0). […] The individual compounds were formulated in an organic solvent-free with HPPCD as drug carriers in 2% HPMC (hydroxypropyl methylcellulose) and 1% PG (propylene glycol) in saline (a thick aqueous suspension) for oral administration. The vehicle is the same thick aqueous suspension without drug. A. FL7s-3-treated xenograft tumor curve profile (left panel) and body weight profile (right panel) over the experimental period. B. FL7s-4-treated xenograft tumor curve profile (left panel) and body weight profile (right panel) over the experimental period. C. FL7s-7-treated xenograft tumor curve profile (left panel) and body weight profile (right panel) over the experimental period.
Human xenograft tumors used. In this invention disclose, human SW620 (colorectal), HT29 (colorectal) and HT-3 (retinoblastoma) cancer cell line-established xenograft tumors were used. Human tumor cell line-derived xenograft tumors are initially established by subcutaneously injecting 2-5×10^6 cultured cancer cells in a volume of 100-150 p L medium into the flank area of severe combined immunodeficiency (SCID) mice. The derived tumors are then passed a couple of generations in mice by transplanting 30-50 mg non-necrotic tumor mass via a trocar for experiments or maintenance. […] PDX tumors were originally established on severe Combined Immunodeficiency (SCID) mice from pancreatic and colorectal cancer patient tumor tissues obtained from metastatic sites of the disease in the clinic.
To these three novel compounds, we performed in vivo animal model studies to evaluate their antitumor activity and toxicity using the HT-3 retinoblastoma xenograft tumor models. In this experiment, we still took advantage of the newly developed formulation for oral administration of compounds.

In data set [9] the test system is HCT116. Description: MTT assay HCT116. Type of data set: cell-based, human. The conditions noted are these: Table 8. How it is done: (§3) MTT assays. […] Each experiment was performed at least in triplicate.
Data set [10] deals with Y79. Description: MTT assay Y79. Type of data set: cell-based. The conditions noted are these: Table 7. Here is the method:
as §3

Data set [11] concerns Wer 127. Description: MTT assay Wer 127. It is filed as cell-based. The conditions noted are these: Table 7. How it is done:
as §3

Data set [12] concerns HT-3. Description: MTT assay HT-3. It is filed as cell-based, human. The settings on record: Table 7; HT-3. Here is the method:
as §1, §2

For data set [13], the system named is A549. Description: MTT assay A549. Type of data set: cell-based, human. The conditions noted are these: Table 9. Here is the method: as §3
The test system of data set [14] is A2008. Description: MTT assay A2008. It is filed as cell-based. The conditions noted are these: Table 9; A2008. How it is done: as §1, §2
The mark [15] stands for this setting: oral one time, 5, 10 and 15 mg/kg.

For the compound `CC[C@@]1(O)C(=O)OCc2c1cc1n(c2=O)Cc2c-1nc1cc3c(cc1c2-c1ccc(OC)cc1)OCO3` [7Q 9], the “antitumor activity, 7Q-series (1)” value in [1] (oral weekly for 4 times) is reported as “much higher antitumor activity than the other compounds in this 7Q-series (1)”. In addition, the IC50/EC50 in data set [2] is 3.37 nM; in data set [3] it was 0.32 nM; in [4] (Table 5 lower part, H1376 bladder cancer), over 500 nM; in data set [5] (Table 5 lower part, UOK151 kidney cancer), 50 nM; in data set [6] (Table 5 lower part, UOK262 kidney cancer) it was 32 nM; in [7] (Table 5 lower part, UMUC-3 bladder cancer) it was 0.35 nM.
In the case of `CC[C@@]1(O)C(=O)OCc2c1cc1n(c2=O)Cc2c-1nc1cc3c(cc1c2CCN1CCOCC1)OCO3` [Compound 7N1, 20 (S)-7-morpholinylethyl-10,11-methylenedioxy-camptothecin], the results for the antitumor activity result in [1] (oral weekly for 3 times) and in data set [8] (setting [15]) were “very good” and “exceptional antitumor activity in all three doses used”, respectively. Besides, in data set [8] (setting [15]), the “toxicity (mouse body weight loss)” value is listed as “without showing toxicity”. For the same compound, the “antitumor activity and toxicity profile” value in data set [8] was “great antitumor activity and favorable toxicity profiles”. Further, the IC50/EC50 in [9] is recorded as 11.6 nM; in [4] (Table 8, H1376), over 500 nM; in [5] (Table 8, UOK151), 42.8 nM; in [6] (Table 8, UOK262), 38 nM; in [7] (Table 8, UMUC-3), 2.05 nM.
On to `CC[C@@]1(O)C(=O)OCc2c1cc1n(c2=O)Cc2c-1nc1cc3c(cc1c2CCN1CCCCC1C)OCO3` (stereo partly drawn) [Compound 7N2], for which, in [8], the “antitumor activity and toxicity profile” value is “great antitumor activity and favorable toxicity profiles”. Further, in data set [9], the IC50/EC50 came to 25.62 nM.
Regarding `CC[C@@]1(O)C(=O)OCc2c1cc1n(c2=O)Cc2c-1nc1cc3c(cc1c2CCN1CCSCC1)OCO3` [Compound 7N3, 20 (S)-7-thiomorpholinylethyl-10,11-methylenedioxy-camptothecin], the “antitumor activity and toxicity profile” value in [8] was “great antitumor activity and favorable toxicity profiles”. Besides, in [9], the IC50/EC50 is listed as 171.9 nM.
Consider `CC[C@@]1(O)C(=O)OCc2c1cc1n(c2=O)Cc2c-1nc1cc3c(cc1c2CCc1ccccc1Cl)OCO3` [FL7-15, 20 (S)-7-(2-chloro-phenethyl)-10,11-methylenedioxy-camptothecin], for which the IC50/EC50 in data set [10] is 12.59 nM; in data set [11], over 500 nM; in data set [12], 45.81 nM. In [8], the “overall antitumor activity versus toxicity ranking” value is “not as good as FL7-5 and FL7-14”.
On to `CC[C@@]1(O)C(=O)OCc2c1cc1n(c2=O)Cc2c-1nc1cc3c(cc1c2CCc1ccc(Br)cc1)OCO3` [FL7-17, 20 (S)-7-(4-bromo-phenethyl)-10,11-methylenedioxy-camptothecin], for which the IC50/EC50 in data set [10] amounted to 1.57 nM; in data set [11], 2.48 nM; in data set [12] it was 6.48 nM. Also, in [8], the “overall antitumor activity versus toxicity ranking” value was “not as good as FL7-5 and FL7-14”.
Take `CC[C@@]1(O)C(=O)OCc2c1cc1n(c2=O)Cc2c-1nc1cc3c(cc1c2/C=C/c1ccc(F)cc1)OCO3` [FL7s-3]: the IC50/EC50 in data set [10] is 0.61 nM; in [11], 40.69 nM; in data set [12], 1.68 nM. The “overall antitumor activity versus toxicity ranking” value in data set [8] is “top two candidates”.
In the same order, the values of `CC[C@@]1(O)C(=O)OCc2c1cc1n(c2=O)Cc2c-1nc1cc3c(cc1c2CCc1cccc(F)c1)OCO3` [FL7s-7] are 0.29 nM, 4.76 nM, 2.22 nM and “top two candidates”.
As for `CC[C@@]1(O)C(=O)OCc2c1cc1n(c2=O)Cc2c-1nc1cc3c(cc1c2-c1ccc(F)c(F)c1)OCO3` [HX6], in [1] (oral weekly for 3 times), the “antitumor activity and toxicity, Hx-series” value is recorded as “much higher antitumor activity with favorable toxicity”. Further, the IC50/EC50 in data set [5] (Table 10, UOK151) is recorded as 4.6 nM; in data set [6] (Table 10, UOK262), 4.9 nM.
With `CC[C@@]1(O)C(=O)OCc2c1cc1n(c2=O)Cc2c-1nc1cc3c(cc1c2-c1ccncc1)OCO3` [W-b1, 20 (S)-7-(pyridyl-4-)-FL118 (10,11-methylenedioxy-camptothecin)], the IC50/EC50 in data set [13] is 73.4 nM; in data set [14], 24.4 nM.
As to `CC[C@@]1(O)C(=O)OCc2c1cc1n(c2=O)Cc2c-1nc1cc3c(cc1c2-c1ccsc1)OCO3` [W-b4], the IC50/EC50 is on record as 1.99 nM in data set [13] and 31.9 nM in [14].
In the same order, the values of `CC[C@@]1(O)C(=O)OCc2c1cc1n(c2=O)Cc2c-1nc1cc3c(cc1c2-c1cnn(C)c1)OCO3` [W-b5] are 2.29 nM and 17.5 nM.
As to `CC[C@@]1(O)C(=O)OCc2c1cc1n(c2=O)Cc2c-1nc1cc3c(cc1c2-c1ccco1)OCO3` [W-b7], the IC50/EC50 in [13] amounted to 0.39 nM; in data set [14] it was 0.19 nM.
For `CC[C@@]1(O)C(=O)OCc2c1cc1n(c2=O)Cc2c-1nc1cc3c(cc1c2-c1ccc(CO)cc1)OCO3` [W-b9], in that order: 1.28 nM and 3.49 nM.
Consider `CC[C@@]1(O)C(=O)OCc2c1cc1n(c2=O)Cc2c-1nc1cc3c(cc1c2-c1cc(C(F)(F)F)cc(C(F)(F)F)c1)OCO3` [W-b10/Hx7], for which, in [1] (oral weekly for 3 times), the “antitumor activity and toxicity, Hx-series” value is listed as “much higher antitumor activity with favorable toxicity”. Besides, the IC50/EC50 in data set [13] was 5.29 nM; in data set [14], 7.31 nM; in [5] (Table 10, UOK151), over 500 nM; in data set [6] (Table 10, UOK262), 33.4 nM.
